Results reported in patent US20200038416A1, “METHODS OF TREATING CARDIAC CONDUCTION DEFECTS USING AMINOSTEROL COMPOSITIONS” (Enterin, Inc., priority 2018, published 2020).
Where “and” joins values, the source holds several entries; their conditions need not be identical. Identical values can stand only once.

What was measured:
[1] = test system: patients with PD and constipation; assay: Phase 2 trial safety and adverse event profile (Stages 1 and 2); assay type: in vivo, human
Method: Tolerability limits included diarrhea or vomiting.
(§1) In Stage 2, 34 patients were evaluated.

αS = αS (Homo sapiens, UniProt P37840); conditions: in vitro; cited from earlier work
patients with PD = assay: CNS symptoms in Stage 2 (UPDRS, MMSE, PDHQ, BDI-II, hallucinations); assay type: in vivo, human; conditions: for patients whose hallucinations or delusions improved or disappeared during treatment: 6 patients with hallucinations (5) or delusions (1) at baseline
Text: Exploratory end-points, in addition to constipation, included for example, (i) depression assessed using the Beck Depression Inventory (BDI-II) (Steer et al. 2000) and Unified Parkinson's Disease Rating Scale (UPDRS); (ii) cognition assessed using the Mini Mental State Examination (MMSE), Unified Parkinson's Disease Rating Scale (UPDRS), and Trail Making Test (TMT); (iii) sleep and REM-behavior disorder (RBD) using a daily sleep diary, I-Button Temperature Assessment, a REM sleep behavior disorder (RBD) questionnaire (RBDQ) (Stiasny-Kolster et al. 2007), and the UPDRS; (iv) hallucinations assessed using the PD hallucinations questionnaire (PDHQ) (Papapetropoulos et al. 2008), the UPDRS, and direct questioning; (v) fatigue using the Parkinson's Disease Fatigue Scale (PFS-16) and the UPDRS; (vi) motor functions using the UPDRS; and (vii) non-motor functions using the UPDRS.
Assessments were made at baseline and at the end of the fixed dose and washout periods. Circadian system status was evaluated by continuously monitoring wrist skin temperature (Thermochron iButton DS1921H; Maxim, Dallas) following published procedures (Sarabia et al. 2008).
An exploratory analysis was done with respect to the sleep data, the body temperature data, mood, fatigue, hallucinations, cognition and other motor and non-motor symptoms of PD. Continuous measurements within a subject were compared with a paired t-test and continuous measurements between subject groups were compared with a two-group t-test. Categorical data were compared with a chi-squared test or a Fisher's exact test if the expected cell counts are too small for a chi-squared test.
CNS symptoms were evaluated at baseline and at the end of the fixed dose period and the wash-out period (Table 12). Total UPDRS score was 64.4 at baseline, 60.6 at the end of the fixed dose period and 55.7 at the end of the wash-out period (p=0.002); similarly, the motor component of the UPDRS improved from 35.3 at baseline to 33.3 at the end of fixed dose to 30.2 at the end of wash-out (p=0.006). MMSE improved from 28.4 at baseline to 28.7 during treatment and to 29.3 during wash-out (p=0.0006). […] PDHQ improved from 1.3 at baseline to 1.8 during treatment and 0.9 during wash-out (p=0.03). Hallucinations were reported by 5 patients at baseline and delusions in 1 patient. […] The frequency of arm or leg thrashing reported in the sleep diary diminished progressively from 2.2 episodes/week at baseline to 0 at maximal dose. […] Unlike stool-related indices, the improvement in many CNS symptoms persisted during wash-out.

[2] = design: species or system rats; conditions: rat, in vivo, po
[3] = test system: patients with PD and constipation; assay: Phase 2 trial Stage 2: bowel function / stool related indices on daily oral dosing; assay type: in vivo, human; conditions: for CSBM/week in the randomized cohort, Treatment (n = 6): baseline 0.8
Method: Following successful screening, all subjects underwent a 14-day run-in period where the degree of constipation was assessed through a validated daily log (Zinsmeister et al. 2013) establishing baseline CSBMs/week. Subjects with an average of <3 CSBMs/week proceeded to dosing.
as §1
The primary efficacy outcome variable was whether or not a subject was a “success” or “failure”. This is an endpoint based on subject diary entries for the “fixed dose” period prior to the endpoint assessment defined as average complete stool frequency increase by 1 or more over baseline, or 3 or more complete spontaneous stools/week. The subject was deemed a “success” if s/he met one or more of the criteria listed above, otherwise the subject was deemed a “failure”. The primary analysis was based on all subjects with a baseline assessment and an assessment at the end of the “fixed-dose” period and was a comparison of the proportion of successes with 0.10 (the null hypothesis corresponding to no treatment effect).

[4] = Stage 1, 10 dosed, unrelated to ENT-01

SMILES: CC(C)[C@@H](CC[C@@H](C)[C@H]1CC[C@H]2[C@@H]3[C@H](O)C[C@H]4C[C@@H](NCCCNCCCCN)CC[C@]4(C)[C@H]3CC[C@]12C)OS(=O)(=O)O (single isomer, unassigned) [squalamine (ENT-01), squalamine]
- share of AEs confined to the GI tract ([1]; Stage 1): 88%
- patients with diarrhea ([1]; Stage 1, 4/10): 40%
- patients with nausea ([1]; Stage 1, 4/10): 40%
- Abdominal pain, Mild: patients with adverse event ([1]; Stage 1, 10 dosed): 2 (20) n, %
- Abdominal pain, Moderate: patients with adverse event ([1]; Stage 1, 10 dosed): 3 (30) n, %
- Blood in urine, Moderate: patients with adverse event ([1]; Stage 1, 10 dosed): 0 n, %
- Diarrhea, Mild: patients with adverse event ([1]; Stage 1, 10 dosed): 1 (10) n, %
- Diarrhea, Moderate: patients with adverse event ([1]; Stage 1, 10 dosed): 3 (30) n, %
- Diarrhea, Severe: patients with adverse event ([1]; Stage 1, 10 dosed): 0 n, %
- Difficulty falling asleep, Mild: patients with adverse event ([1]; Stage 1, 10 dosed): 0 n, %
- Difficulty falling asleep, Moderate: patients with adverse event ([1]; Stage 1, 10 dosed): 0 n, %
- Dizziness, Mild: patients with adverse event ([1]; Stage 1, 10 dosed): 0 n, %
- Dizziness, Moderate: patients with adverse event ([1]; Stage 1, 10 dosed): 0 n, %
- Eye infection, Mild: patients with adverse event ([1]; Stage 1, 10 dosed): 0 n, %
- Eye infection, Moderate: patients with adverse event ([1]; Stage 1, 10 dosed): 0 n, %
- Flatulence, Mild: patients with adverse event ([1]; Stage 1, 10 dosed): 2 (20) n, %
- Flatulence, Moderate: patients with adverse event ([1]; Stage 1, 10 dosed): 0 n, %
- Headache, Mild: patients with adverse event ([1]; Stage 1, 10 dosed): 1 (10) n, %
- Headache, Moderate: patients with adverse event ([1]; Stage 1, 10 dosed): 0 n, %
- Increased urinary frequency, Mild: patients with adverse event ([1]; Stage 1, 10 dosed): 0 n, %
- Increased urinary frequency, Moderate: patients with adverse event ([1]; Stage 1, 10 dosed): 0 n, %
- Loss of appetite, Moderate: patients with adverse event ([1]; Stage 1, 10 dosed): 0 n, %
- Lower GI bleed, Severe: patients with adverse event ([1]; Stage 1, 10 dosed): 0 n, %
- Nausea, Mild: patients with adverse event ([1]; Stage 1, 10 dosed): 4 (40) n, %
- Nausea, Moderate: patients with adverse event ([1]; Stage 1, 10 dosed): 0 n, %
- Skin lesions-rash, Mild: patients with adverse event ([1]; Stage 1, 10 dosed): 0 n, %
- Skin lesions-rash, Moderate: patients with adverse event ([1]; Stage 1, 10 dosed): 0 n, %
- Urinary retention, Mild: patients with adverse event ([1]; Stage 1, 10 dosed): 0 n, %
- Urinary retention, Moderate: patients with adverse event ([1]; Stage 1, 10 dosed): 0 n, %
- Urinary tract infection, Mild: patients with adverse event ([1]; Stage 1, 10 dosed): 0 n, %
- Urinary tract infection, Moderate: patients with adverse event ([1]; Stage 1, 10 dosed): 0 n, %
- Vomiting, Mild: patients with adverse event ([1]; Stage 1, 10 dosed): 1 (10) n, %
- Vomiting, Moderate: patients with adverse event ([1]; Stage 1, 10 dosed): 0 n, %
- Worsening acid reflux, Mild: patients with adverse event ([1]; Stage 1, 10 dosed): 0 n, %
- Worsening acid reflux, Moderate: patients with adverse event ([1]; Stage 1, 10 dosed): 0 n, %
- Worsening hemorrhoid, Mild: patients with adverse event ([1]; Stage 1, 10 dosed): 0 n, %
- Worsening hemorrhoid, Moderate: patients with adverse event ([1]; Stage 1, 10 dosed): 0 n, %
- Blood in urine, Mild: patients with adverse event [1, 4]: 1 (10) n, %
- Loss of appetite, Mild: patients with adverse event [1, 4]: 1 (10) n, %
- share of AEs confined to the GI tract ([1]; Stage 2): 63%
- Abdominal pain, Mild: patients with adverse event ([1]; Stage 2, 34 dosed): 4 n
- Abdominal pain, Moderate: patients with adverse event ([1]; Stage 2, 34 dosed): 2 n
- Blood in urine, Mild: patients with adverse event ([1]; Stage 2, 34 dosed): 0 n
- Blood in urine, Moderate: patients with adverse event ([1]; Stage 2, 34 dosed): 0 n
- Diarrhea, Mild: patients with adverse event ([1]; Stage 2, 34 dosed): 12 n
- Diarrhea, Moderate: patients with adverse event ([1]; Stage 2, 34 dosed): 2 n
- Diarrhea, Severe: patients with adverse event ([1]; Stage 2, 34 dosed): 1 n
- Difficulty falling asleep, Mild: patients with adverse event ([1]; Stage 2, 34 dosed): 1 n
- Difficulty falling asleep, Moderate: patients with adverse event ([1]; Stage 2, 34 dosed): 0 n
- Dizziness, Mild: patients with adverse event ([1]; Stage 2, 34 dosed): 7 n
- Dizziness, Moderate: patients with adverse event ([1]; Stage 2, 34 dosed): 1 n
- Eye infection, Mild: patients with adverse event ([1]; Stage 2, 34 dosed): 1 n
- Eye infection, Moderate: patients with adverse event ([1]; Stage 2, 34 dosed): 0 n
- Flatulence, Mild: patients with adverse event ([1]; Stage 2, 34 dosed): 1 n
- Flatulence, Moderate: patients with adverse event ([1]; Stage 2, 34 dosed): 0 n
- Headache, Mild: patients with adverse event ([1]; Stage 2, 34 dosed): 3 n
- Headache, Moderate: patients with adverse event ([1]; Stage 2, 34 dosed): 0 n
- Increased urinary frequency, Mild: patients with adverse event ([1]; Stage 2, 34 dosed): 2 n
- Increased urinary frequency, Moderate: patients with adverse event ([1]; Stage 2, 34 dosed): 0 n
- Loss of appetite, Mild: patients with adverse event ([1]; Stage 2, 34 dosed): 0 n
- Loss of appetite, Moderate: patients with adverse event ([1]; Stage 2, 34 dosed): 0 n
- Nausea, Mild: patients with adverse event ([1]; Stage 2, 34 dosed): 18 n
- Nausea, Moderate: patients with adverse event ([1]; Stage 2, 34 dosed): 1 n
- Skin lesions-rash, Mild: patients with adverse event ([1]; Stage 2, 34 dosed): 3 n
- Skin lesions-rash, Moderate: patients with adverse event ([1]; Stage 2, 34 dosed): 0 n
- Urinary retention, Mild: patients with adverse event ([1]; Stage 2, 34 dosed): 1 n
- Urinary retention, Moderate: patients with adverse event ([1]; Stage 2, 34 dosed): 0 n
- Urinary tract infection, Mild: patients with adverse event ([1]; Stage 2, 34 dosed): 1 n
- Urinary tract infection, Moderate: patients with adverse event ([1]; Stage 2, 34 dosed): 2 n
- Vomiting, Mild: patients with adverse event ([1]; Stage 2, 34 dosed): 2 n
- Vomiting, Moderate: patients with adverse event ([1]; Stage 2, 34 dosed): 0 n
- Worsening acid reflux, Mild: patients with adverse event ([1]; Stage 2, 34 dosed): 4 n
- Worsening acid reflux, Moderate: patients with adverse event ([1]; Stage 2, 34 dosed): 0 n
- Worsening hemorrhoid, Mild: patients with adverse event ([1]; Stage 2, 34 dosed): 1 n
- Worsening hemorrhoid, Moderate: patients with adverse event ([1]; Stage 2, 34 dosed): 0 n
- Lower GI bleed, Severe: patients with adverse event ([1]; Stage 2, colonic diverticulosis, polyp, patient on aspirin, Plavix and naproxen, unrelated to ENT-01): 1 n
- displacement of αS from membranes (αS): can displace αS from membranes in vitro
- patients whose hallucinations or delusions improved or disappeared during treatment (patients with PD): five and 5 of 6
- patients whose hallucinations or delusions improved or disappeared during treatment (patients with PD; listed as ENT-01): five
- improvement in Part 1 of the UPDRS (patients with PD; baseline 11.6 to wash-out 9.5): ~20%
- time hallucinations/delusions did not return following discontinuation (patients with PD; single patients): 4 weeks and 2 weeks
- absorption from the intestine [2]: low
- CSBM/week in the randomized cohort, group later randomized to Placebo (n = 9) ([3]; Fixed dose period (on drug, before randomization), baseline 1.6): 3.3 CSBM/week
- CSBM/week in the randomized cohort, Treatment (n = 6) ([3]; Fixed dose period): 3.2 CSBM/week
- CSBM/week in the randomized cohort, Treatment (n = 6) ([3]; Randomized period (4-6 days continued treatment)): 2.4 CSBM/week
- CSBM/week in the randomized cohort, Treatment (n = 6) ([3]; Washout): 0.9 CSBM/week
